Measured values published in PMC6767403, “8‐Hydroxyquinolines are bactericidal against Mycobacterium tuberculosis” (Drug Development Research, 2019).
In brackets after ≈: the same amount, converted by molar mass. Where two headings read alike, the source gives them in different places.

Key:
[1] = test system: M. tuberculosis H37Rv; assay: microbe, parasite or virus in culture; type: cell-based, Mycobacterium tuberculosis
[2] = Vero cell cytotoxicity, CellTiter-Glo, 2 days; type: cell-based; conditions: African green monkey, 2 days exposure
Description: Vero cells (CCL81) were cultured in high‐glucose Dulbecco's modified Eagle medium with GlutaMax (Invitrogen), 10% v/v fetal bovine serum, 50 units/mL penicillin, and 50 μg/mL streptomycin. Cells were exposed to compounds for 2 days and viability was determined using CellTiter‐Glo (Promega).

[3] = test system: HepG2 human liver cells; assay: HepG2 cytotoxicity, CellTiter-Glo, 72 hr; conditions: HepG2, 72 h, read-out: HepG2 IC50
[4] = test system: HepG2 human liver cells
[5] = test system: M. tuberculosis; assay: Kill kinetics against replicating M. tuberculosis (CFU); type: cell-based, Mycobacterium tuberculosis; conditions: replicating conditions; for bactericidal activity (in words): 7H9-OADC-Tw medium, 1× to 10× MIC
[6] = Mycobacterium tuberculosis, H37RV, 120 h, […], mean ± SD (n in parentheses), read-out: MIC

Question: For Oc1cccc2ccc(Nc3ccccc3)nc12 [Compound 16], which “anti-tubercular activity (in words)” value [1] is on record?
Answer: loss of activity

Question: And the MIC [1, 6]?
Answer: > 20 µM

Question: And the IC50 at 2 days ([2]; Vero cells (CCL81))?
Answer: 0.94 µM

Question: And the IC50 [3]?
Answer: 3.8 ± 0.45 µM

Question: Which “anti-tubercular activity (in words)” value [1] does the source give for Nc1ccc2cccc(O)c2n1 [Compound 12] here?
Answer: retained measurable anti‐tubercular activity

Question: And the MIC [1, 6]?
Answer: 4.6 ± 1.7 µM (≈ 0.737 µg/mL)

Question: And the IC50 at 2 days ([2]; Vero cells)?
Answer: 3.3 µM

Question: What about the IC50 [3] of the same compound?
Answer: 12 ± 0.5 µM

Question: For Oc1ccc(CNc2cccc(Br)c2)c2cccnc12 [Compound 8], which “anti-tubercular activity (in words)” value [1] is on record?
Answer: abrogated the anti‐tubercular activity

Question: What about the MIC [1, 6] of the same compound?
Answer: > 20 µM

Question: What about the IC50 at 2 days ([2]; Vero cells (CCL81)) of the same compound?
Answer: 7.5 µM

Question: What about the IC50 [3] of the same compound?
Answer: 12 ± 0.5 µM

Question: For [O-][n+]1cccc2cccc(O)c21 [Compound 10], which “anti-tubercular activity (in words)” value [1] is on record?
Answer: loss of activity

Question: What about the MIC [1, 6] of the same compound?
Answer: > 20 µM

Question: What about the IC50 at 2 days ([2]; Vero cells (CCL81)) of the same compound?
Answer: > 20 µM

Question: What about the “cytotoxicity against HepG2 cells (in words)” value [4] of the same compound?
Answer: significant reduction of cytotoxicity

Question: And the IC50 [3]?
Answer: < 88 µM

Question: Which MIC [1, 6] does the source give for COc1cccc(/C=C/c2ccc3cccc(O)c3n2)c1 [Compound 21] here?
Answer: 8.7 ± 0.2 µM (≈ 2.41 µg/mL)

Question: And the IC50 at 2 days ([2]; Vero cells (CCL81))?
Answer: 2.9 µM

Question: And the IC50 [3]?
Answer: 10 ± 1 µM

Question: For Cc1ccc2cccc(O)c2n1 [Compound 11], which “anti-tubercular activity (in words)” value [1] is on record?
Answer: not tolerated

Question: What about the MIC [1, 6] of the same compound?
Answer: > 20 µM

Question: What about the IC50 at 2 days ([2]; Vero cells) of the same compound?
Answer: 12 µM

Question: And the IC50 [3]?
Answer: 28 ± 9 µM

Question: Which “anti-tubercular activity (in words)” value [1] does the source give for Oc1ccc(CN2CCN(c3ccc(F)cc3)CC2)c2cccnc12 [Compound 9] here?
Answer: abrogated the anti‐tubercular activity

Question: And the MIC [1, 6]?
Answer: > 20 µM

Question: What about the IC50 at 2 days ([2]; Vero cells (CCL81)) of the same compound?
Answer: 5.8 µM

Question: What about the IC50 [3] of the same compound?
Answer: 9.8 ± 2.2 µM

Question: With Oc1cccc2cccnc12 [Compound 1, 8‐hydroxyquinoline] as the compound, how does the MIC [1] read?
Answer: 3.6 ± 0.20 (2) μM

Question: And the MIC ([1]; Mycobacterium tuberculosis, H37RV, 120 h)?
Answer: 3.6 µM (≈ 0.523 µg/mL)

Question: What about the IC50 at 2 days ([2]; Vero cells) of the same compound?
Answer: 1.4 µM

Question: And the IC50 [3]?
Answer: 7.6 ± 0.68 µM

Question: With Oc1cccc2ccc(N3CCCCC3)nc12 [Compound 15] as the compound, how does the “anti-tubercular activity (in words)” value [1] read?
Answer: loss of activity

Question: And the MIC [1, 6]?
Answer: > 20 µM

Question: And the IC50 at 2 days ([2]; Vero cells (CCL81))?
Answer: > 50 µM

Question: And the IC50 [3]?
Answer: > 100 µM

Question: Which “anti-tubercular activity (in words)” value [1] does the source give for CN(C)c1ccc2cccc(O)c2n1 [Compound 14] here?
Answer: loss of activity

Question: And the MIC [1, 6]?
Answer: > 20 µM

Question: And the IC50 at 2 days ([2]; Vero cells (CCL81))?
Answer: > 50 µM

Question: What about the IC50 [3] of the same compound?
Answer: > 100 µM

Question: With Oc1cccc2ccc(/C=C/c3ccc4c(c3)OCO4)nc12 [Compound 23] as the compound, how does the MIC [1, 6] read?
Answer: 15 ± 5 µM (≈ 4.37 µg/mL)

Question: What about the IC50 at 2 days ([2]; Vero cells (CCL81)) of the same compound?
Answer: 6 µM

Question: And the IC50 [3]?
Answer: 9.1 ± 3 µM

Question: For COc1ccccc1/C=C/c1ccc2cccc(O)c2n1 [Compound 22], which MIC [1, 6] is on record?
Answer: 13 ± 9.1 µM (≈ 3.61 µg/mL)

Question: What about the IC50 at 2 days ([2]; Vero cells (CCL81)) of the same compound?
Answer: 6.2 µM

Question: What about the IC50 [3] of the same compound?
Answer: 12 ± 2 µM

Question: With OCc1ccccc1CN1CCN(Cc2ccc3cccc(O)c3n2)CC1 [Compound 26] as the compound, how does the “anti-tubercular activity (in words)” value [1] read?
Answer: not tolerated

Question: What about the MIC [1, 6] of the same compound?
Answer: > 20 µM

Question: What about the IC50 at 2 days ([2]; Vero cells (CCL81)) of the same compound?
Answer: 11 µM

Question: And the IC50 [3]?
Answer: 14 ± 0.5 µM

Question: Which results are given for CNc1ccc2cccc(O)c2n1 [Compound 13]?
Answer: anti-tubercular activity (in words) [1]: retained measurable anti‐tubercular activity; MIC [1, 6]: 6.4 ± 0.35 µM (≈ 1.11 µg/mL); IC50 at 2 days ([2]; Vero cells (CCL81)): 8.2 µM; IC50 [3]: 22 ± 2.8 µM

Question: What does the source list for Cc1ccc(O)c2ncccc12 [Compound 2]?
Answer: MIC [1, 6]: 3.1 ± 1.1 µM (≈ 0.493 µg/mL); IC50 at 2 days ([2]; Vero cells (CCL81)): 1.4 µM; IC50 [3]: 6.5 ± 1.7 µM

Question: Which MIC [1, 6] does the source give for Oc1ccc(Br)c2cccnc12 [Compound 3] here?
Answer: 2.9 ± 0.4 µM (≈ 0.65 µg/mL)

Question: What about the IC50 at 2 days ([2]; Vero cells (CCL81)) of the same compound?
Answer: 1.8 µM

Question: What about the IC50 [3] of the same compound?
Answer: 6.9 ± 0.59 µM

Question: For Cc1cc(C)n(-c2ccc3cccc(O)c3n2)n1 [Compound 19], which MIC [1, 6] is on record?
Answer: > 20 µM

Question: What about the IC50 at 2 days ([2]; Vero cells (CCL81)) of the same compound?
Answer: 19 µM

Question: What about the IC50 [3] of the same compound?
Answer: 12 ± 0.5 µM

Question: Which MIC [1, 6] does the source give for Oc1c(Cl)cc(Cl)c2cccnc12 [Compound 5] here?
Answer: 8.4 µM (≈ 1.8 µg/mL)

Question: What about the MIC ([1]; […], mean ± SD (n in parentheses)) of the same compound?
Answer: 8.4 ± 4.5 (6) μM

Question: What about the IC50 at 2 days ([2]; Vero cells (CCL81)) of the same compound?
Answer: 1.3 µM

Question: And the IC50 [3]?
Answer: 7.6 ± 1.2 µM

Question: What does the source list for O=[N+]([O-])c1ccc(O)c2ncccc12 [Compound 6]?
Answer: MIC [1, 6]: 4.8 ± 3.3 µM (≈ 0.913 µg/mL); IC50 at 2 days ([2]; Vero cells (CCL81)): 2.9 µM; IC50 [3]: 7.7 ± 1.8 µM

Question: For Oc1ccc(Cl)c2cccnc12 [Compound 4], which MIC [1, 6] is on record?
Answer: 3 ± 1 µM (≈ 0.539 µg/mL)

Question: What about the IC50 at 2 days ([2]; Vero cells (CCL81)) of the same compound?
Answer: 2.4 µM

Question: And the “bactericidal activity (in words)” value [5]?
Answer: bactericidal

Question: And the “logs of bacteria killed” value ([5]; 12 μM (2.5× MIC) and higher, within 14 days)?
Answer: ≥ 3 logs

Question: And the IC50 [3]?
Answer: 7.6 ± 1.5 µM

Question: Which MIC [1, 6] does the source give for Oc1ccc(COC2CCCCC2)c2cccnc12 [Compound 7] here?
Answer: 3.2 ± 0.85 µM (≈ 0.823 µg/mL)

Question: And the IC50 at 2 days ([2]; Vero cells (CCL81))?
Answer: 6.2 µM

Question: And the IC50 [3]?
Answer: 4.9 ± 1.9 µM

Question: With Oc1cccc2ccc(/C=C/c3ccccc3Cl)nc12 [Compound 25] as the compound, how does the MIC [1, 6] read?
Answer: 5.8 ± 2.2 µM (≈ 1.63 µg/mL)

Question: What about the IC50 at 2 days ([2]; Vero cells (CCL81)) of the same compound?
Answer: 9 µM

Question: What about the IC50 [3] of the same compound?
Answer: 12 ± 1 µM

Question: Which “anti-tubercular activity (in words)” value [1] does the source give for CC(=O)Nc1ccc2cccc(O)c2n1 [Compound 17] here?
Answer: not tolerated

Question: And the MIC [1, 6]?
Answer: > 20 µM

Question: And the IC50 at 2 days ([2]; Vero cells (CCL81))?
Answer: 4.9 µM

Question: And the IC50 [3]?
Answer: 9 ± 1 µM

Question: For Oc1cccc2ccc(/C=C/c3cccc(F)c3)nc12 [Compound 24], which MIC [1, 6] is on record?
Answer: 13 ± 6.3 µM (≈ 3.45 µg/mL)

Question: And the IC50 at 2 days ([2]; Vero cells (CCL81))?
Answer: 7.2 µM

Question: And the “bactericidal activity (in words)” value [5]?
Answer: bactericidal

Question: What about the “log kill (sterilized the culture)” value ([5]; 27 μM (10× MIC), within 14 days) of the same compound?
Answer: > 4 log

Question: And the “logs of bacteria killed” value ([5]; concentrations above 14 μM (5× MIC))?
Answer: ≥ 2 logs

Question: And the IC50 [3]?
Answer: 8 ± 0.6 µM
